Measured values as given in ChEMBL document CHEMBL3885881, “DrugMatrix”.

Organism: Rattus norvegicus
Experiment: DrugMatrix - Regimen: Daily Repeat
Assay type: toxicity, organism-based, Sprague-Dawley
Design: regimen Daily Repeat, gender Male, age 6-8 weeks
Details: in vivo, po, 100 mg/kg, route oral GAVAGE, dose level Low, vehicle 100 % WATER; for ABSOLUTE BASOPHIL / ABSOLUTE EOSINOPHIL / ABSOLUTE LYMPHOCYTE / ABSOLUTE MONOCYTE / ABSOLUTE SEGMENTED NEUTROPHIL / BASOPHIL / EOSINOPHIL / ERYTHROCYTE COUNT / HEMATOCRIT / HEMOGLOBIN / LEUKOCYTE COUNT / LYMPHOCYTE / MEAN CORPUSCULAR HEMOGLOBIN / MEAN CORPUSCULAR HEMOGLOBIN CONCENTRATION / MEAN CORPUSCULAR VOLUME / MONOCYTE / NEUTROPHIL / NUCLEATED RED BLOOD CELLS / PLATELET COUNT: tissue Blood; for ALANINE AMINOTRANSFERASE / ALBUMIN / ALKALINE PHOSPHATASE / ASPARTATE AMINOTRANSFERASE / BLOOD UREA NITROGEN / CARBON DIOXIDE / CHLORIDE / CHOLESTEROL / CREATINE PHOSPHOKINASE / CREATININE / GLUCOSE / LACTATE DEHYDROGENASE / LIPASE / PHOSPHORUS / POTASSIUM / SODIUM / TOTAL BILIRUBIN / TOTAL PROTEIN / URIC ACID: tissue Plasma

In the case of `O=C1O[C@H]([C@@H](O)CO)C(O)=C1O` [ASCORBIC ACID], the “ABSOLUTE BASOPHIL” value (72 h, time 3 day) is reported as 0 CELLS/uL, the “ABSOLUTE EOSINOPHIL” value (72 h, time 3 day) is reported as 27 CELLS/uL and the “ABSOLUTE LYMPHOCYTE” value (72 h, time 3 day) is reported as 7261.67 CELLS/uL. The “ABSOLUTE MONOCYTE” value (72 h, time 3 day) was 27 CELLS/uL, the “ABSOLUTE SEGMENTED NEUTROPHIL” value (72 h, time 3 day) was 717.67 CELLS/uL and the BASOPHIL (72 h, time 3 day) was 0%. For the same compound, the EOSINOPHIL (72 h, time 3 day) was 0.33%, the “ERYTHROCYTE COUNT” value (72 h, time 3 day) was 4.91 x10E6/uL and the HEMATOCRIT (72 h, time 3 day) was 32.13%. The HEMOGLOBIN (72 h, time 3 day) was 13.13 G/DL, the “LEUKOCYTE COUNT” value (72 h, time 3 day) was 8.03 x10E3/uL and the LYMPHOCYTE (72 h, time 3 day) was 89%. The “MEAN CORPUSCULAR HEMOGLOBIN” value (72 h, time 3 day) was 26.8 pg, the “MEAN CORPUSCULAR HEMOGLOBIN CONCENTRATION” value (72 h, time 3 day) was 40.87 G/DL and the “MEAN CORPUSCULAR VOLUME” value (72 h, time 3 day) was 65.43 fL. The MONOCYTE (72 h, time 3 day) was 0.33%, the NEUTROPHIL (72 h, time 3 day) was 10.33% and the “NUCLEATED RED BLOOD CELLS” value (72 h, time 3 day) was 0.33 /100WBC. For the same compound, the “PLATELET COUNT” value (72 h, time 3 day) was 954.33 x10E3/uL, the “ALANINE AMINOTRANSFERASE” value (72 h, time 3 day) was 50 u/L and the ALBUMIN (72 h, time 3 day) was 4.53 G/DL. For the same compound, the “ALKALINE PHOSPHATASE” value (72 h, time 3 day) was 454.67 u/L, the “ASPARTATE AMINOTRANSFERASE” value (72 h, time 3 day) was 87 u/L and the “BLOOD UREA NITROGEN” value (72 h, time 3 day) was 15 mg/dL. The “CARBON DIOXIDE” value (72 h, time 3 day) was 32.33 mmol/L, the CHLORIDE (72 h, time 3 day) was 101 MEQ/L and the CHOLESTEROL (72 h, time 3 day) was 78.33 mg/dL. The “CREATINE PHOSPHOKINASE” value (72 h, time 3 day) was 273 u/L, the CREATININE (72 h, time 3 day) was 0.25 mg/dL and the GLUCOSE (72 h, time 3 day) was 121.33 mg/dL. For the same compound, the “LACTATE DEHYDROGENASE” value (72 h, time 3 day) was 148.67 u/L, the LIPASE (72 h, time 3 day) was 9.67 u/L and the PHOSPHORUS (72 h, time 3 day) was 12.13 mg/dL. For the same compound, the POTASSIUM (72 h, time 3 day) was 7.25 MEQ/L, the SODIUM (72 h, time 3 day) was 146.63 MEQ/L and the “TOTAL BILIRUBIN” value (72 h, time 3 day) was 0.23 mg/dL. The “TOTAL PROTEIN” value (72 h, time 3 day) was 6.33 G/DL, the “URIC ACID” value (72 h, time 3 day) was 1.07 mg/dL and the “ABSOLUTE BASOPHIL” value (120 h, time 5 day) was 0 CELLS/uL. For the same compound, the “ABSOLUTE EOSINOPHIL” value (120 h, time 5 day) was 0 CELLS/uL, the “ABSOLUTE LYMPHOCYTE” value (120 h, time 5 day) was 12684.67 CELLS/uL and the “ABSOLUTE MONOCYTE” value (120 h, time 5 day) was 119.33 CELLS/uL. For the same compound, the “ABSOLUTE SEGMENTED NEUTROPHIL” value (120 h, time 5 day) was 1596 CELLS/uL, the BASOPHIL (120 h, time 5 day) was 0% and the EOSINOPHIL (120 h, time 5 day) was 0%. The “ERYTHROCYTE COUNT” value (120 h, time 5 day) was 5.44 x10E6/uL, the HEMATOCRIT (120 h, time 5 day) was 34.63% and the HEMOGLOBIN (120 h, time 5 day) was 13.63 G/DL. For the same compound, the “LEUKOCYTE COUNT” value (120 h, time 5 day) was 14.4 x10E3/uL, the LYMPHOCYTE (120 h, time 5 day) was 88.33% and the “MEAN CORPUSCULAR HEMOGLOBIN” value (120 h, time 5 day) was 25.07 pg. The “MEAN CORPUSCULAR HEMOGLOBIN CONCENTRATION” value (120 h, time 5 day) was 39.4 G/DL, the “MEAN CORPUSCULAR VOLUME” value (120 h, time 5 day) was 63.67 fL and the MONOCYTE (120 h, time 5 day) was 1%. The NEUTROPHIL (120 h, time 5 day) was 10.67%, the “NUCLEATED RED BLOOD CELLS” value (120 h, time 5 day) was 0 /100WBC and the “PLATELET COUNT” value (120 h, time 5 day) was 1152.33 x10E3/uL. The “ALANINE AMINOTRANSFERASE” value (120 h, time 5 day) was 51.67 u/L, the ALBUMIN (120 h, time 5 day) was 4.3 G/DL and the “ALKALINE PHOSPHATASE” value (120 h, time 5 day) was 417 u/L. The “ASPARTATE AMINOTRANSFERASE” value (120 h, time 5 day) was 79 u/L, the “BLOOD UREA NITROGEN” value (120 h, time 5 day) was 17 mg/dL and the “CARBON DIOXIDE” value (120 h, time 5 day) was 33.33 mmol/L. The CHLORIDE (120 h, time 5 day) was 103 MEQ/L, the CHOLESTEROL (120 h, time 5 day) was 73 mg/dL and the “CREATINE PHOSPHOKINASE” value (120 h, time 5 day) was 142.33 u/L. The CREATININE (120 h, time 5 day) was 0.2 mg/dL, the GLUCOSE (120 h, time 5 day) was 152.67 mg/dL and the “LACTATE DEHYDROGENASE” value (120 h, time 5 day) was 82.33 u/L. For the same compound, the LIPASE (120 h, time 5 day) was 8.33 u/L, the PHOSPHORUS (120 h, time 5 day) was 12.97 mg/dL and the POTASSIUM (120 h, time 5 day) was 6.73 MEQ/L. The SODIUM (120 h, time 5 day) was 148.3 MEQ/L, the “TOTAL BILIRUBIN” value (120 h, time 5 day) was 0.2 mg/dL and the “TOTAL PROTEIN” value (120 h, time 5 day) was 6.23 G/DL. For the same compound, the “URIC ACID” value (120 h, time 5 day) was 1.53 mg/dL.
